According to ChEMBL document CHEMBL1157535, “2-Aminobenzophenones as a novel class of bradykinin B1 receptor antagonists” (J Med Chem, 2008):

Experiments:
[1] = system: human MDR1 (P-gp); test: (§1) Apparent permeability in pig LLC-PK1 cells transfected with human MDR1; format: ADME, cell-based, Sus scrofa; conditions: LLC-PK1
[2] = species: Canis familiaris; conditions: dog, in vivo, iv, 0.25 mg/kg
[3] = in vivo; conditions: mongrel, dog, iv, 0.25 mg/kg, CL
[4] = in vivo; conditions: Sprague-Dawley, rat, iv, 2 mg/kg
[5] = in vivo; conditions: Sprague-Dawley, rat, po, 10 mg/kg, F
[6] = in vivo; conditions: mongrel, dog, iv, 0.25 mg/kg, t1/2
[7] = in vivo; conditions: Sprague-Dawley, rat, t1/2
[8] = species: Rattus norvegicus; conditions: in vivo, po, 10 mg/kg
[9] = system: LLC-PK1; test: as §1; format: ADME, cell-based, Sus scrofa; conditions: llc-pk1
[10] = species: Rattus norvegicus; conditions: in vivo
[11] = Metabolic stability in Sprague-Dawley rat liver microsomes after 30 mins; format: ADME, Microsome; conditions: read-out: Stability
[12] = Metabolic stability in human liver microsomes after 30 mins; format: ADME, Microsome; conditions: read-out: Stability
[13] = Metabolic stability in Beagle dog liver microsomes after 30 mins; format: ADME, Canis lupus familiaris, Microsome; conditions: read-out: Stability
[14] = Metabolic stability in monkey liver microsomes after 30 mins; format: ADME, Macaca mulatta, Microsome; conditions: rhesus monkey, read-out: Stability
[15] = system: Spinal cord; test: Drug level in transgenic rat spinal cord at 12 mg/kg, iv; format: ADME, organism-based; parameters: dose 12 mg/kg, route intravenous; conditions: in vivo
[16] = system: Spinal cord; test: Drug level in transgenic rat spinal cord at 1.2 mg/kg, iv; format: ADME, organism-based; parameters: dose 1.2 mg/kg, route intravenous; conditions: in vivo
[17] = system: Plasma; test: Drug level in transgenic rat plasma at 12 mg/kg, iv; format: ADME, organism-based; parameters: dose 12 mg/kg, route intravenous; conditions: in vivo
[18] = system: Brain; test: Drug level in transgenic rat brain at 0.12 mg/kg, iv; format: ADME, organism-based; parameters: dose 0.12 mg/kg, route intravenous; conditions: in vivo
[19] = system: Brain; test: Drug level in transgenic rat brain at 1.2 mg/kg, iv; format: ADME, organism-based; parameters: dose 1.2 mg/kg, route intravenous; conditions: in vivo
[20] = system: Spinal cord; test: Drug level in transgenic rat spinal cord at 0.12 mg/kg, iv; format: ADME, organism-based; parameters: dose 0.12 mg/kg, route intravenous; conditions: in vivo
[21] = system: Plasma; test: Drug level in transgenic rat plasma at 0.12 mg/kg, iv; format: ADME, organism-based; parameters: dose 0.12 mg/kg, route intravenous; conditions: in vivo
[22] = system: Plasma; test: Drug level in transgenic rat plasma at 1.2 mg/kg, iv; format: ADME, organism-based; parameters: dose 1.2 mg/kg, route intravenous; conditions: in vivo
[23] = system: Brain; test: Drug level in transgenic rat brain at 12 mg/kg, iv; format: ADME, organism-based; parameters: dose 12 mg/kg, route intravenous; conditions: in vivo

SMILES	Papp [1] [nm/s]	t1/2 [2] [h]	clearance [3] [L/h/kg]	clearance [4] [L/h/kg]	bioavailability [5] [%]	half-life [6] [h]	half-life [7] [h]	t1/2 [10] [h]	other results
CC(=O)Nc1ccc(S(=O)(=O)Nc2ccccc2C(=O)c2ccccn2)cc1			0.072	1.44	11	1.2	1.2		
O=C(Nc1ccc(S(=O)(=O)Nc2ccccc2C(=O)c2ccccn2)cc1)OCC1CCCO1 (stereo in doubt; 29)	330		0.174	2.4		2.2	1.7		F [8]: 3%
O=C(Nc1ccc(S(=O)(=O)Nc2ccccc2C(=O)c2ccccn2)cc1)OCC1CCCO1 (stereo in doubt; 28)		2.6							
O=C(NCCCN1CCCCC1)Nc1ccc(S(=O)(=O)Nc2ccccc2C(=O)c2ccccc2)cc1	340		1.02	1.74	41	1.5		14	

Continued, in another order:

Papp [1] [nm/s]	t1/2 [2] [h]	clearance [3] [L/h/kg]	clearance [4] [L/h/kg]	bioavailability [5] [%]	half-life [6] [h]	half-life [7] [h]	t1/2 [10] [h]	SMILES	other results
260	1.8							O=C(Nc1ccc(S(=O)(=O)Nc2ccccc2C(=O)c2ccc(F)cn2)cc1)OCC1CCCO1 (stereo in doubt; 30)	
	1.4						1.4	O=C(Nc1ccc(S(=O)(=O)Nc2ccccc2C(=O)c2ccccn2)cc1)OCC1CCCO1 (racemic)	Papp [9]: 310 nm/s; F [8]: 17%
			1.56	< 1	2.8	1.1		O=C(Nc1ccc(S(=O)(=O)Nc2ccccc2C(=O)c2ccc(F)cn2)cc1)OCC1CCCO1 (stereo in doubt; 32)	
270		0.45	1.56	3	0.5		0.3	CC(=O)Nc1ccc(S(=O)(=O)Nc2ccccc2C(=O)c2ccccc2)cc1	remaining at 0.5 h [11]: < 10%; remaining at 0.5 h [12]: < 10%; remaining at 0.5 h [13]: < 10%; remaining at 0.5 h [14]: < 10%
260		1.02	2.58	3	1.9		9.7	O=C(Nc1ccc(S(=O)(=O)Nc2ccccc2C(=O)c2ccccc2)cc1)OCC1CCCO1 (stereo not drawn)	concentration [15]: 9.43 µM; concentration [16]: 0.597 µM; concentration [17]: 13.2 µM; concentration [18]: 0.07 µM; concentration [19]: 0.438 µM; concentration [20]: 0.097 µM; concentration [21]: 0.08 µM; concentration [22]: 0.995 µM; concentration [23]: 5.84 µM
